{"source": "ChEMBL document CHEMBL5137058", "about": "“Therapeutic Strategies to Target the Androgen Receptor” (J Med Chem, 2022)", "key": {"Androgen receptor [1]": {"biological_target": "T1, Androgen receptor (Homo sapiens, UniProt P10275)", "T1 sequence (P10275 whole entry)": "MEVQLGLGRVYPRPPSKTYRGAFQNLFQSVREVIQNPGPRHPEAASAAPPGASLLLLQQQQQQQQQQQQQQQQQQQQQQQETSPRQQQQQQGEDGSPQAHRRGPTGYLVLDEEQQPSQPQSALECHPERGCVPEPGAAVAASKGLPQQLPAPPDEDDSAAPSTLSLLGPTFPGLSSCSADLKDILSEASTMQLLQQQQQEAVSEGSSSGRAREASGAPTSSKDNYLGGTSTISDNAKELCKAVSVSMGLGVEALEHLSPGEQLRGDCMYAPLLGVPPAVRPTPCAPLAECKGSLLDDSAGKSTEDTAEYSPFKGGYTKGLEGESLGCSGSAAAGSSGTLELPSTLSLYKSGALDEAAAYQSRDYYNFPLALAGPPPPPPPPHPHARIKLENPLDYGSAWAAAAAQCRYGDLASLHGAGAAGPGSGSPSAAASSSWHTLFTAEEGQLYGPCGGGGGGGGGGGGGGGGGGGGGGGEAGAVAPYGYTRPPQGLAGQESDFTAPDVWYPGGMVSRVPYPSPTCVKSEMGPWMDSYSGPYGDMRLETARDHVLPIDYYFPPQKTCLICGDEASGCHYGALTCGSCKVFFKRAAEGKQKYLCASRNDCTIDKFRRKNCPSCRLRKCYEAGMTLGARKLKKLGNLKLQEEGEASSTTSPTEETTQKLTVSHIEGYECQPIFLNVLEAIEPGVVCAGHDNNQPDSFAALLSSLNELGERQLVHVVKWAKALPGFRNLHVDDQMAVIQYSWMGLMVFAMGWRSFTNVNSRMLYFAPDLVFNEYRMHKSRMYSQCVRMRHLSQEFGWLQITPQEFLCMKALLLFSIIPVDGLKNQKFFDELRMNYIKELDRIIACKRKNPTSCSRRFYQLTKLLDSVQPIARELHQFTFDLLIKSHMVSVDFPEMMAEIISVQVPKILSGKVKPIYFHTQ", "test": "Binding affinity to Androgen receptor (unknown origin)", "conditions": "read-out: IC50"}, "[2]": {"test": "In vivo antagonist activity at Androgen receptor assessed as reduction in wax ester in golden hamster ear model", "format": "functional, Cricetinae", "parameters": "concentration or dose not given beside the values"}, "Androgen receptor [3]": {"biological_target": "T1, Androgen receptor", "test": "Antagonist activity at Androgen receptor in human MDA-MB-453 cells measured by SEAP reporter gene assay", "format": "cell-based"}, "Androgen receptor [4]": {"biological_target": "T1, Androgen receptor", "test": "Antagonist activity at Androgen receptor in human LNCaP cells measured by SEAP reporter gene assay", "format": "cell-based"}, "Androgen receptor [5]": {"biological_target": "T1, Androgen receptor", "test": "Displacement of [3H]DHT from Androgen receptor expressed in human MDA-MB-453 cells", "format": "cell-based"}, "Androgen receptor [6]": {"biological_target": "T1, Androgen receptor", "test": "Antagonist activity at Androgen receptor in human MDA-kb2 cells", "format": "cell-based"}, "Androgen receptor [7]": {"biological_target": "T1, Androgen receptor", "test": "Binding affinity to human Androgen receptor"}, "[8]": {"biological_target": "GABA-A receptor; anion channel", "test": "Binding affinity to GABA A receptor (unknown origin)", "format": "protein-complex assay, Homo sapiens"}, "[9]": {"test": "Antiproliferative activity against refractory human prostate cancer cells", "format": "functional, cell-based", "conditions": "Prostate tumor cell line"}, "Rattus norvegicus": {"tested_on": "Rattus norvegicus", "test": "Anti-androgenic activity in testosterone-treated castrated rat assessed as reduction in prostate weight at 2 mg administered orally per day for 5 days", "format": "functional", "parameters": "Activity: scale not given: the % may be the effect or the level left", "conditions": "route po, time 5 day; for Activity: at 2 mg"}, "LNCaP": {"tested_on": "LNCaP", "test": "Antiproliferative activity against human LNCaP cells", "format": "functional, cell-based"}, "Androgen receptor [10]": {"biological_target": "T1, Androgen receptor", "test": "Agonist activity to human Androgen receptor in African green monkey COS-7 cells measured by luciferase reporter assay", "format": "cell-based"}, "[11]": {"biological_target": "T2, Androgen receptor (Homo sapiens) (UniProt P10275)", "T2 sequence (whole entry)": "T1 sequence (P10275 whole entry)", "test": "Agonist activity at androgen receptor (unknown origin) at 1 uM relative to control", "conditions": "filed as agonist"}, "Androgen receptor [12]": {"biological_target": "Androgen receptor (Mus musculus, UniProt P19091)", "sequence (P19091 whole entry)": "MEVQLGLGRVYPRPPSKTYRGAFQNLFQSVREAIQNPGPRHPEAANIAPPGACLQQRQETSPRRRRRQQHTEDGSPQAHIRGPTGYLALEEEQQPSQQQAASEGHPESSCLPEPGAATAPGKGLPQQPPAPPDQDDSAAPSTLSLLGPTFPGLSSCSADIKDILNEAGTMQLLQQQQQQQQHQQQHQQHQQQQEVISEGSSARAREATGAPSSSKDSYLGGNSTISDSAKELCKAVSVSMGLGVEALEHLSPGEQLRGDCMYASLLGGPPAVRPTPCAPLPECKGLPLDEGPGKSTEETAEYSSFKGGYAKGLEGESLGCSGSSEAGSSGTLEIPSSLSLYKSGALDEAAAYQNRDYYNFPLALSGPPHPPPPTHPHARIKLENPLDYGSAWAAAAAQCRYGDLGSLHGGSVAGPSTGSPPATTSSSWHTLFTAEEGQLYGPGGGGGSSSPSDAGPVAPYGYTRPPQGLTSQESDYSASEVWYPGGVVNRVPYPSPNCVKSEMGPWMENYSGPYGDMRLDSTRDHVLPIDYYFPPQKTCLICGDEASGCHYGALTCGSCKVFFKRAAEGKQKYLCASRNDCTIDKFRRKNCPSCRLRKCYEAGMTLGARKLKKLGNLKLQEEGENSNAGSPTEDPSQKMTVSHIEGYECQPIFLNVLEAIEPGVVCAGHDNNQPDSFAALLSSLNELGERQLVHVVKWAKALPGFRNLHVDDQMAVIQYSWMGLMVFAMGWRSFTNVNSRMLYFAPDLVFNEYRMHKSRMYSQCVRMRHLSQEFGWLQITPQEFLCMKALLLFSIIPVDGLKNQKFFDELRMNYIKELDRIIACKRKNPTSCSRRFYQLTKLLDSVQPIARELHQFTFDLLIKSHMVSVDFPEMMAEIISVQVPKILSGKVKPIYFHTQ", "test": "Agonist activity at Androgen receptor (unknown origin) transfected in mouse C2C12 cells measured by luciferase reporter assay", "format": "cell-based"}, "Androgen receptor [13]": {"biological_target": "T1, Androgen receptor", "test": "Displacement of [3H]methyltrienolone from Androgen receptor expressed in human MDA-MB-453 cells", "format": "cell-based"}, "Androgen receptor [14]": {"biological_target": "Androgen receptor (Homo sapiens, UniProt P10275, T878A)", "sequence (P10275 whole entry T878A)": "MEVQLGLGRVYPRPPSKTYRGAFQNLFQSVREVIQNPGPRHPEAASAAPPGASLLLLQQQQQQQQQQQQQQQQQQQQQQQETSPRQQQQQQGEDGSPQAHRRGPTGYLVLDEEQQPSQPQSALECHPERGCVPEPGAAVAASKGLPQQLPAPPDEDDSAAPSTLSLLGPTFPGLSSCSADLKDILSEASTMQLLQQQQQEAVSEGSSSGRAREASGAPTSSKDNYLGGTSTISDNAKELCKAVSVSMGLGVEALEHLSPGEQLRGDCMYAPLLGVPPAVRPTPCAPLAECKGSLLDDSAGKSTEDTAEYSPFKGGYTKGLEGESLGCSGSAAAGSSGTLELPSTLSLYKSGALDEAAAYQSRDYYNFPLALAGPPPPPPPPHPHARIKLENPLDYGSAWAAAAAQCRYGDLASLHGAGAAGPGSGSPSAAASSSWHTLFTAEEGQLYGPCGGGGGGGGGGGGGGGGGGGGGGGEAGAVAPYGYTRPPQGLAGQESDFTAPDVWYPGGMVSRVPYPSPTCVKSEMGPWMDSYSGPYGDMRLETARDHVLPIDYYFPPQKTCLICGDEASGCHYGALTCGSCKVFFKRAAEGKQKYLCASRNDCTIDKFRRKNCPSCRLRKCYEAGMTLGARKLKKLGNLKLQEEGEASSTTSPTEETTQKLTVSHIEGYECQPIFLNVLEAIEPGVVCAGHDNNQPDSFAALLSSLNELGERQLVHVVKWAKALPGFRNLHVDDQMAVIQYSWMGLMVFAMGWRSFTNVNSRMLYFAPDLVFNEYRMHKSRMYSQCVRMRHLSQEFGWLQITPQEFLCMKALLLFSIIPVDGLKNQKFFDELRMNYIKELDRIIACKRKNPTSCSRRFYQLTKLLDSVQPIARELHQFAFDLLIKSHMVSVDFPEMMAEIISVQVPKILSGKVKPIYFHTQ", "test": "Binding affinity to bicalutamide-resistant Androgen receptor T878A mutant (unknown origin)"}, "SC-3": {"tested_on": "SC-3", "test": "Antiproliferative activity against mouse SC-3 cells", "format": "functional, cell-based"}, "[15]": {"test": "In vivo agonist activity at Androgen receptor in male rat assessed as increase in prostate weight at 2 mg/kg, po administered for 5 days", "format": "functional", "conditions": "time 5 day"}, "[16]": {"test": "In vivo agonist activity at Androgen receptor in male rat assessed as increase in levator ani muscle weight at 2 mg/kg, po administered for 5 days", "format": "functional", "conditions": "time 5 day"}, "Androgen receptor [17]": {"biological_target": "Androgen receptor (Rattus norvegicus, UniProt P15207)", "sequence (P15207 whole entry S389L)": "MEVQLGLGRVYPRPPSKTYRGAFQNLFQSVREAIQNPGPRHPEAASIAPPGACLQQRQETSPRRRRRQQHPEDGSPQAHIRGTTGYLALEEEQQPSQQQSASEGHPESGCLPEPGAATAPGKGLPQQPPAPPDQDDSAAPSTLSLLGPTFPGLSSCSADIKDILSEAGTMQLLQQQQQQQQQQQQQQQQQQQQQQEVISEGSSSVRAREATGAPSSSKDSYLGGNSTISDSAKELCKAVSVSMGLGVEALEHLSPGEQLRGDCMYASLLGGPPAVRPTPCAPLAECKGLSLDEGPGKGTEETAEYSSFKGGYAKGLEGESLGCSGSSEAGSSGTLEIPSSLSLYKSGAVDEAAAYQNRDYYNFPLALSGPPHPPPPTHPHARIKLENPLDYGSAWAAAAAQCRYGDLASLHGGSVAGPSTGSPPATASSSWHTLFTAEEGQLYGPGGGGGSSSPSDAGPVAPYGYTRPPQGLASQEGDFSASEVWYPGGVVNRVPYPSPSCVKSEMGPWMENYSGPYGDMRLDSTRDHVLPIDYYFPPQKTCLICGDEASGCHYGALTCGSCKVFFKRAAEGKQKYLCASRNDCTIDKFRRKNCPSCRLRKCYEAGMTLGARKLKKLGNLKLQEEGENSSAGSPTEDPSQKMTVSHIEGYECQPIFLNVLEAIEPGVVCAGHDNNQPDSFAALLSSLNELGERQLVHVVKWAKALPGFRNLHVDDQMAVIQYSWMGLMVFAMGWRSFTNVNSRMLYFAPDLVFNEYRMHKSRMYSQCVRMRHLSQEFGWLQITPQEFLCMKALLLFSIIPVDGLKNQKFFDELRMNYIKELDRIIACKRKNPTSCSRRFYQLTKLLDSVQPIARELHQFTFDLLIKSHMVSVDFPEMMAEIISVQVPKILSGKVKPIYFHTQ", "test": "Binding affinity to rat Androgen receptor in African green monkey COS-7 cells measured by whole-cell binding assay", "format": "cell-based"}}}
{"molecule": "CC(O)(COC(=O)c1ccccc1C(F)(F)F)c1cc2cc([N+](=O)[O-])c(C(F)(F)F)cc2[nH]1", "note": "(stereo unspecified)", "values": [{"measurement": "IC50", "setting": "Androgen receptor [1]", "result": 0.14, "unit": "µM"}]}
{"molecule": "CC1(C)CN(Cc2ccccc2)C(=O)[C@@H]1Oc1ccc(C#N)c(C(F)(F)F)c1", "values": [{"measurement": "Activity", "setting": "[2]", "result": 78, "unit": "%"}]}
{"molecule": "CCCCc1ccc(OC(=O)N2C[C@@H]3C[C@H]2[C@@H]2C(=O)N(c4ccc([N+](=O)[O-])c5ccccc45)C(=O)N32)cc1", "values": [{"measurement": "IC50", "setting": "Androgen receptor [3]", "result": 0.06, "unit": "µM"}, {"measurement": "IC50", "setting": "Androgen receptor [4]", "result": 4.75, "unit": "µM"}, {"measurement": "Ki", "setting": "Androgen receptor [5]", "result": 0.073, "unit": "µM"}]}
{"molecule": "N#Cc1ccc([C@H]2CCCC[C@H]2O)cc1C(F)(F)F", "values": [{"measurement": "Activity", "setting": "[2]", "result": 85, "unit": "%"}, {"measurement": "IC50", "setting": "Androgen receptor [6]", "result": 0.09, "unit": "µM"}, {"measurement": "IC50", "setting": "Androgen receptor [7]", "result": 0.026, "unit": "µM"}]}
{"molecule": "CNC(=O)c1ccc(N2C(=S)N(c3cnc(C#N)c(C(F)(F)F)c3)C(=O)C23CCC3)cc1F", "note": "[APALUTAMIDE]", "values": [{"measurement": "IC50", "setting": "[8]", "result": 3, "unit": "µM"}]}
{"molecule": "C[C@@H]1CC[C@H]([C@@H](O)C(F)(F)F)N1c1ccc2[nH]c(=O)cc(C(F)(F)F)c2c1", "note": "[LGD-2941]", "values": [{"measurement": "Ki", "setting": "Androgen receptor [7]", "result": 0.0065, "unit": "µM"}]}
{"molecule": "N#Cc1ccc(-n2c(=O)n(Cc3ccccc3)c3ccccc32)cc1C(F)(F)F", "values": [{"measurement": "IC50", "setting": "[9]", "result": 0.17, "unit": "µM"}]}
{"molecule": "Cc1c(C(C)(O)C(F)(F)F)[nH]c2cc(C(F)(F)F)c(C#N)cc12", "note": "(stereo unspecified)", "values": [{"measurement": "ID50", "setting": "Rattus norvegicus", "result": 0.13, "unit": "mg/day"}, {"measurement": "Activity", "setting": "Rattus norvegicus", "result": 80, "unit": "%"}]}
{"molecule": "CNC(=O)c1ccc(N2C(=S)N(c3ccc(C#N)c(C(F)(F)F)c3)C(=O)C2(C)C)cc1F", "note": "[ENZALUTAMIDE]", "values": [{"measurement": "IC50", "setting": "[8]", "result": 3, "unit": "µM"}, {"measurement": "IC50", "setting": "LNCaP", "result": 0.036, "unit": "µM"}]}
{"molecule": "C[C@H]1[C@@H](O)CCN1c1ccc(C#N)c2ccccc12", "values": [{"measurement": "IC50", "setting": "Androgen receptor [7]", "result": 0.0024, "unit": "µM"}, {"measurement": "EC50", "setting": "Androgen receptor [10]", "result": 0.00032, "unit": "µM"}]}
{"molecule": "CC(O)(C[S+]([O-])c1ccc(Cl)c(Cl)c1)c1cc2cc(Cl)c(C(F)(F)F)cc2[nH]1", "note": "(stereo unspecified)", "values": [{"measurement": "IC50", "setting": "Androgen receptor [1]", "result": 0.1, "unit": "µM"}]}
{"molecule": "Fc1ccc(Cn2c(CC(F)(F)F)nc3cc(Cl)c(Cl)cc32)cc1", "values": [{"measurement": "ID50", "setting": "Rattus norvegicus", "result": 0.13, "unit": "mg/day"}, {"measurement": "Activity", "setting": "Rattus norvegicus", "result": 84, "unit": "%"}]}
{"molecule": "CC1(C)CN(CCC#N)C(=O)[C@@H]1Oc1ccc(C#N)c(C(F)(F)F)c1", "values": [{"measurement": "Activity", "setting": "[11]", "result": 89, "unit": "%"}]}
{"molecule": "Cc1c(N2C(=O)[C@@H]3[C@H](O)CCN3C2=O)ccc(C#N)c1Cl", "values": [{"measurement": "EC50", "setting": "Androgen receptor [12]", "result": 0.0023, "unit": "µM"}]}
{"molecule": "N#CCC(O)(c1nc2cc(Cl)c(Cl)cc2[nH]1)C(F)(F)F", "note": "(stereo unspecified)", "values": [{"measurement": "IC50", "setting": "Androgen receptor [1]", "result": 0.002, "unit": "µM"}]}
{"molecule": "Cc1ccccc1Oc1ccc(C#N)c(Cl)c1", "values": [{"measurement": "Activity", "setting": "[2]", "result": ">87", "unit": "%"}]}
{"molecule": "CN1C(=O)C(F)=C[C@]2(C)[C@H]3CC[C@]4(C)[C@@H](C(=O)NCc5nc6cccnc6[nH]5)CC[C@H]4[C@@H]3CC[C@@H]12", "note": "[MK-0773]", "values": [{"measurement": "IC50", "setting": "Androgen receptor [13]", "result": 0.0066, "unit": "µM"}]}
{"molecule": "N#Cc1ccc(N2CCC[C@@H]2[C@@H](O)C(F)(F)F)cc1C(F)(F)F", "note": "[VK5211]", "values": [{"measurement": "Ki", "setting": "Androgen receptor [7]", "result": 0.001, "unit": "µM"}]}
{"molecule": "Cn1cc(N(Cc2ccccc2)c2ccc([N+](=O)[O-])cc2)cc1C(=O)N1CCCC1", "values": [{"measurement": "Ki", "setting": "Androgen receptor [14]", "result": 0.006, "unit": "µM"}, {"measurement": "IC50", "setting": "SC-3", "result": 0.44, "unit": "µM"}]}
{"molecule": "Cc1c(/N=C2\\N=C(N)N3N=C(C(F)(F)F)C[C@@]23C)ccc(C#N)c1C(F)(F)F", "values": [{"measurement": "Activity", "setting": "[15]", "result": 36, "unit": "%"}, {"measurement": "Activity", "setting": "[16]", "result": 91, "unit": "%"}]}
{"molecule": "Cc1c(N2CC[C@](C)(O)[C@@H]2C)ccc(C#N)c1Cl", "values": [{"measurement": "IC50", "setting": "Androgen receptor [7]", "result": 0.001, "unit": "µM"}, {"measurement": "EC50", "setting": "Androgen receptor [10]", "result": 0.00029, "unit": "µM"}]}
{"molecule": "O=c1[nH]nc(Cc2c(Cl)cccc2Cl)c2ccccc12", "values": [{"measurement": "IC50", "setting": "SC-3", "result": 0.18, "unit": "µM"}, {"measurement": "IC50", "setting": "LNCaP", "result": 0.56, "unit": "µM"}]}
{"molecule": "CC1(C)C(=O)N(c2ccc(C#N)c(Cl)c2)C(=S)N1CCCS(N)(=O)=O", "values": [{"measurement": "IC50", "setting": "LNCaP", "result": 0.41, "unit": "µM"}]}
{"molecule": "OC1(C(F)(F)F)CCCC2c3cc(Cl)c(Cl)cc3NC21", "note": "(stereo unspecified)", "values": [{"measurement": "IC50", "setting": "Androgen receptor [17]", "result": 0.027, "unit": "µM"}]}
